Reference: patent publication US20260365647A1, “AKT1 MODULATORS” (Alterome Therapeutics, Inc., priority 2022, published 2026)

molecular target: T1, AKT1-E17K (Homo sapiens, UniProt P31749, E17K); test: NanoBRET Target Engagement (TE) Assay; assay type: cell-based
T1 construct: host or cells: HEK-293 (ATCC CRL-1573)
How it was run: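 Live cells transiently expressing NanoLuc-AKT1 E17K fusion, incubated 2 h with tracer and compound before substrate plus extracellular NanoLuc inhibitor were added. BRET read at 450/600 nm; EC50 from variable-slope sigmoidal fit of tracer displacement.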

T1 sequence (P31749 whole entry E17K): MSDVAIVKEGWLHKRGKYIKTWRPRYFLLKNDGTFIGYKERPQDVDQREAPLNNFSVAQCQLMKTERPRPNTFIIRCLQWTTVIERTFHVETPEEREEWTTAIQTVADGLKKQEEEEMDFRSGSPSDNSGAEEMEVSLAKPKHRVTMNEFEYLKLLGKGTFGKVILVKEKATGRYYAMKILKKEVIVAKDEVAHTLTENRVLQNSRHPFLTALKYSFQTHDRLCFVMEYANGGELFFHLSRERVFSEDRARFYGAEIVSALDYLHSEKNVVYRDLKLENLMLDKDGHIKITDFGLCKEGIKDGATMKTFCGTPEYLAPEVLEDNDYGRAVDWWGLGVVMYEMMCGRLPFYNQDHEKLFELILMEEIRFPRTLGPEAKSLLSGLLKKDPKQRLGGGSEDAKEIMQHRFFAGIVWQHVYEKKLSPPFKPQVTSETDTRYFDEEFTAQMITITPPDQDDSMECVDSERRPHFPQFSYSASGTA

Row | SMILES | IC50 [nM]
1 | CN(C(=O)c1ccc(O)c(C=O)c1)C1CCN(Cc2ccc(-n3c(-c4cccnc4N)nc4ccc(-c5ccccc5)nc43)cc2)CC1 [Example 55, N-(1-(4-(2-(2-Aminopyridin-3-yl)-5-phenyl-3H-imidazo[4,5-b]pyridin-3-yl)benzyl)piperidin-4-yl)-3-formyl-4-hydroxy-N-methylbenzamide] | 15 to 60
2 | Nc1ncccc1-c1nc2ccc(-c3ccccc3)nc2n1-c1ccc(CN2C[C@H]3C[C@@H]2CN3C(=O)c2ccc(C=O)c(O)c2)cc1 [Example 56, 4-((1R,4R)-5-(4-(2-(2-Aminopyridin-3-yl)-5-phenyl-3H-imidazo[4,5-b]pyridin-3-yl)benzyl)-2,5-diazabicyclo[2.2.1]heptane-2-carbonyl)-2-hydroxybenzaldehyde] | 60 to 600
3 | CN(c1ccc(C=O)c(O)c1)C1CCN(Cc2ccc(-n3c(-c4cccnc4N)nc4ccc(-c5ccccc5)nc43)cc2)CC1 [Example 57, 4-((1-(4-(2-(2-Aminopyridin-3-yl)-5-phenyl-3H-imidazo[4,5-b]pyridin-3-yl)benzyl)piperidin-4-yl)(methyl)amino)-2-hydroxybenzaldehyde] | 60 to 600
4 | Nc1ncccc1-c1nc2ccc(-c3ccccc3)nc2n1-c1ccc(CN2CCC[C@@H](NC(=O)c3ccc(O)c(C=O)c3)C2)cc1 [Example 58, (R)—N-(1-(4-(2-(2-Aminopyridin-3-yl)-5-phenyl-3H-imidazo[4,5-b]pyridin-3-yl)benzyl)piperidin-3-yl)-3-formyl-4-hydroxybenzamide] | 15 to 60
5 | Nc1ncccc1-c1nc2ccc(-c3ccccc3)nc2n1-c1ccc(CN2CC[C@@H](NC(=O)c3ccc(O)c(C=O)c3)C2)cc1 [Example 59, (R)—N-(1-(4-(2-(2-aminopyridin-3-yl)-5-phenyl-3H-imidazo[4,5-b]pyridin-3-yl)benzyl)pyrrolidin-3-yl)-3-formyl-4-hydroxybenzamide] | < 15
6 | CN(C(=O)c1ccc(C=O)c(O)c1)C1CCN(Cc2ccc(-n3c(-c4cccnc4N)nc4ccc(-c5ccccc5)nc43)cc2)CC1 [Example 60, N-(1-(4-(2-(2-Aminopyridin-3-yl)-5-phenyl-3H-imidazo[4,5-b]pyridin-3-yl)benzyl)piperidin-4-yl)-4-formyl-3-hydroxy-N-methylbenzamide] | 60 to 600
7 | Nc1ncccc1-c1nc2ccc(-c3ccccc3)nc2n1-c1ccc(CN2CC(NC(=O)c3ccc(O)c(C=O)c3)C2)cc1 [Example 61, N-(1-(4-(2-(2-Aminopyridin-3-yl)-5-phenyl-3H-imidazo[4,5-b]pyridin-3-yl)benzyl)azetidin-3-yl)-3-formyl-4-hydroxybenzamide] | 15 to 60
8 | Nc1ncccc1-c1nc2ccc(-c3ccccc3)nc2n1-c1ccc(CN2CC3(C2)CN(C(=O)c2ccc(O)c(C=O)c2)C3)cc1 [Example 62, 5-(6-(4-(2-(2-Aminopyridin-3-yl)-5-phenyl-3H-imidazo[4,5-b]pyridin-3-yl)benzyl)-2,6-diazaspiro[3.3]heptane-2-carbonyl)-2-hydroxybenzaldehyde] | < 15
9 | Nc1ncccc1-c1nc2ccc(-c3ccccc3)nc2n1-c1ccc(CN2CCC[C@@H](NC(=O)c3ccc(C=O)c(O)c3)C2)cc1 [Example 63, (R)—N-(1-(4-(2-(2-Aminopyridin-3-yl)-5-phenyl-3H-imidazo[4,5-b]pyridin-3-yl)benzyl)piperidin-3-yl)-4-formyl-3-hydroxybenzamide] | 60 to 600
10 | Nc1ncccc1-c1nc2ccc(-c3ccccc3)nc2n1-c1ccc(CN2CC[C@@H](NC(=O)c3ccc(C=O)c(O)c3)C2)cc1 [Example 64, (R)—N-(1-(4-(2-(2-Aminopyridin-3-yl)-5-phenyl-3H-imidazo[4,5-b]pyridin-3-yl)benzyl)pyrrolidin-3-yl)-4-formyl-3-hydroxybenzamide] | 60 to 600
11 | Nc1ncccc1-c1nc2ccc(-c3ccccc3)nc2n1-c1ccc(CN2CC(NC(=O)c3ccc(C=O)c(O)c3)C2)cc1 [Example 65, N-(1-(4-(2-(2-Aminopyridin-3-yl)-5-phenyl-3H-imidazo[4,5-h]pyridin-3-yl)benzyl)azetidin-3-yl)-4-formyl-3-hydroxybenzamide] | 15 to 60
12 | Nc1ncccc1-c1nc2ccc(-c3ccccc3)nc2n1-c1ccc(CN2CC3(C2)CN(C(=O)c2ccc(C=O)c(O)c2)C3)cc1 [Example 66, 4-(6-(4-(2-(2-Aminopyridin-3-yl)-5-phenyl-3H-imidazo[4,5-b]pyridin-3-yl)benzyl)-2,6-diazaspiro[3.3]heptane-2-carbonyl)-2-hydroxybenzaldehyde] | 60 to 600
13 | Nc1ncccc1-c1nc2ccc(-c3ccccc3)nc2n1-c1ccc(CN2CCC3(CC2)CN(C(=O)c2ccc(O)c(C=O)c2)C3)cc1 [Example 67, 5-(7-(4-(2-(2-Aminopyridin-3-yl)-5-phenyl-3H-imidazo[4,5-b]pyridin-3-yl)benzyl)-2,7-diazaspiro[3.5]nonane-2-carbonyl)-2-hydroxybenzaldehyde] | 60 to 600
14 | Nc1ncccc1-c1nc2ccc(-c3ccccc3)nc2n1-c1ccc(CN2CCC3(CC2)CC(NC(=O)c2ccc(O)c(C=O)c2)C3)cc1 [Example 68, N-(7-(4-(2-(2-Aminopyridin-3-yl)-5-phenyl-3H-imidazo[4,5-b]pyridin-3-yl)benzyl)-7-azaspiro[3.5]nonan-2-yl)-3-formyl-4-hydroxybenzamide] | 15 to 60
15 | Nc1ncccc1-c1nc2ccc(-c3ccccc3)nc2n1-c1ccc(CN2CC3(CC(NC(=O)c4ccc(O)c(C=O)c4)C3)C2)cc1 [Example 69, N-(2-(4-(2-(2-Aminopyridin-3-yl)-5-phenyl-3H-imidazo[4,5-b]pyridin-3-yl)benzyl)-2-azaspiro[3.3]heptan-6-yl)-3-formyl-4-hydroxybenzamide] | < 15
16 | Nc1ncccc1-c1nc2ccc(-c3ccccc3)nc2n1-c1ccc(CN2CC3(CC(NC(=O)c4ccc(C=O)c(O)c4)C3)C2)cc1 [Example 70, N-(2-(4-(2-(2-Aminopyridin-3-yl)-5-phenyl-3H-imidazo[4,5-b]pyridin-3-yl)benzyl)-2-azaspiro[3.3]heptan-6-yl)-4-formyl-3-hydroxybenzamide] | 60 to 600
17 | Nc1ncccc1-c1nc2ccc(-c3ccccc3)nc2n1-c1ccc(CN2CCC3(CC2)CN(C(=O)c2ccc(C=O)c(O)c2)C3)cc1 [Example 71, 4-(7-(4-(2-(2-Aminopyridin-3-yl)-5-phenyl-3H-imidazo[4,5-b]pyridin-3-yl)benzyl)-2,7-diazaspiro[3.5]nonane-2-carbonyl)-2-hydroxybenzaldehyde] | > 600

The remaining lines, values ahead:

Row | IC50 [nM] | SMILES
18 | 15 to 60 | Nc1ncccc1-c1nc2ccc(-c3ccccc3)nc2n1-c1ccc(CN2CCCN(C(=O)c3ccc(C=O)c(O)c3)CC2)cc1 [Example 72, 4-(4-(4-(2-(2-Aminopyridin-3-yl)-5-phenyl-3H-imidazo[4,5-b]pyridin-3-yl)benzyl)-1,4-diazepane-1-carbonyl)-2-hydroxybenzaldehyde]
19 | 60 to 600 | Nc1ncccc1-c1nc2ccc(-c3ccccc3)nc2n1-c1ccc(CN2CCC3(CC2)CN(c2ccc(C=O)c(O)c2)C3)cc1 [Example 73, 4-(7-(4-(2-(2-Aminopyridin-3-yl)-5-phenyl-3H-imidazo[4,5-b]pyridin-3-yl)benzyl)-2,7-diazaspiro[3.5]nonan-2-yl)-2-hydroxybenzaldehyde]
20 | 15 to 60 | Nc1ncccc1-c1nc2ccc(-c3ccccc3)nc2n1-c1ccc(CN2CCC3(CC2)CCN(C(=O)c2ccc(O)c(C=O)c2)C3)cc1 [Example 74, 5-(8-(4-(2-(2-aminopyridin-3-yl)-5-phenyl-3H-imidazo[4,5-b]pyridin-3-yl)benzyl)-2,8-diazaspiro[4.5]decane-2-carbonyl)-2-hydroxybenzaldehyde]
21 | 60 to 600 | Nc1ncccc1-c1nc2ccc(-c3ccccc3)nc2n1-c1ccc(CN2CCC3(CC2)CCN(C(=O)c2ccc(C=O)c(O)c2)C3)cc1 [Example 75, 4-(8-(4-(2-(2-Aminopyridin-3-yl)-5-phenyl-3H-imidazo[4,5-b]pyridin-3-yl)benzyl)-2,8-diazaspiro[4.5]decane-2-carbonyl)-2-hydroxybenzaldehyde]
22 | 60 to 600 | Nc1ncccc1-c1nc2ccc(-c3ccccc3)nc2n1-c1ccc(CN2CCC3(CC2)CCN(c2ccc(C=O)c(O)c2)C3)cc1 [Example 76, 4-(8-(4-(2-(2-Aminopyridin-3-yl)-5-phenyl-3H-imidazo[4,5-b]pyridin-3-yl)benzyl)-2,8-diazaspiro[4.5]decan-2-yl)-2-hydroxybenzaldehyde]
23 | 60 to 600 | Nc1ncccc1-c1nc2ccc(-c3ccccc3)nc2n1-c1ccc(CN2CCC3(CC2)CCN(C(=O)c2ccc(O)c(C=O)c2)CC3)cc1 [Example 77, 5-(9-(4-(2-(2-Aminopyridin-3-yl)-5-phenyl-3H-imidazo[4,5-b]pyridin-3-yl)benzyl)-3,9-diazaspiro[5.5]undecane-3-carbonyl)-2-hydroxybenzaldehyde]
24 | 60 to 600 | Nc1ncccc1-c1nc2ccc(-c3ccccc3)nc2n1-c1ccc(CN2CCC3(CC2)CCN(c2ccc(C=O)c(O)c2)CC3)cc1 [Example 78, 4-(9-(4-(2-(2-Aminopyridin-3-yl)-5-phenyl-3H-imidazo[4,5-b]pyridin-3-yl)benzyl)-3,9-diazaspiro[5.5]undecan-3-yl)-2-hydroxybenzaldehyde]
25 | 15 to 60 | Nc1ncccc1-c1nc2ccc(-c3ccccc3)nc2n1-c1ccc(CN2CCC3(C2)CN(c2ccc(C=O)c(O)c2)C3)cc1 [Example 79, 4-(6-(4-(2-(2-Aminopyridin-3-yl)-5-phenyl-3H-imidazo[4,5-b]pyridin-3-yl)benzyl)-2,6-diazaspiro[3.4]octan-2-yl)-2-hydroxybenzaldehyde]
26 | 60 to 600 | Nc1ncccc1-c1nc2ccc(-c3ccccc3)nc2n1-c1ccc(CN2CCC3(CCN(C(=O)c4ccc(O)c(C=O)c4)C3)C2)cc1 (stereo not drawn) [Example 80, 5-(7-(4-(2-(2-Aminopyridin-3-yl)-5-phenyl-3H-imidazo[4,5-b]pyridin-3-yl)benzyl)-2,7-diazaspiro[4.4]nonane-2-carbonyl)-2-hydroxybenzaldehyde]
27 | 60 to 600 | Nc1ncccc1-c1nc2ccc(-c3ccccc3)nc2n1-c1ccc(CN2CCC3(CCN(C(=O)c4ccc(C=O)c(O)c4)C3)C2)cc1 (stereo not drawn) [Example 81, 4-(7-(4-(2-(2-Aminopyridin-3-yl)-5-phenyl-3H-imidazo[4,5-b]pyridin-3-yl)benzyl)-2,7-diazaspiro[4.4]nonane-2-carbonyl)-2-hydroxybenzaldehyde]
